Activity calls are given as the source filed them. No rule for the calls is given here.
System: CCRIS mutagenicity, Ames/micronucleus/aberration tests
Experiment: CCRIS mutagenicity studies
Settings: Test System: AMES SALMONELLA TYPHIMURIUM, Method: STANDARD PLATE

Measured: mutagenic call

CCOCC=O
inactive: Strain/Indicator: TA97A, Metabolic Activation: NONE inactive; negative | Strain/Indicator: TA97A, Metabolic Activation: RAT, LIVER, S-9, AROCLOR 1254 inactive; negative | Strain/Indicator: TA98, Metabolic Activation: NONE inactive; negative | Strain/Indicator: TA98, Metabolic Activation: RAT, LIVER, S-9, AROCLOR 1254 inactive; negative | Strain/Indicator: TA100, Metabolic Activation: NONE inactive; negative | Strain/Indicator: TA100, Metabolic Activation: RAT, LIVER, S-9, AROCLOR 1254 inactive; negative | Strain/Indicator: TA102, Metabolic Activation: NONE inactive; negative | Strain/Indicator: TA102, Metabolic Activation: RAT, LIVER, S-9, AROCLOR 1254 inactive; negative

Source: PubChem BioAssay AID1259407 (Chemical Carcinogenesis Research Information System (CCRIS), 2018)
